Measurements as given in patent US20230079732A1, “OPAL PEPTIDE ADMINISTRATION” (priority 2020, published 2023).
Read-outs that look alike come from different tables or passages of the source.

Assays:
blood glucose [1] = assay: Glucose tolerance test with an oral dose of conjugate (FIG. 4); assay type: in vivo, rodents; conditions: for effect on blood glucose after glucose gavage: 30 minutes before glucose gavage, monitored 90 minutes (FIG. 4 legend)
Procedure: Each subject was then monitored for blood glucose over the 90 minutes after receiving the glucose gavage.
A population of 30 healthy rodents without diabetic symptoms were obtained, and were divided into six treatment groups: one group of 5 rodents received 2 IU/kg of insulin by intraperitoneal injection 30 minutes prior to a glucose gavage; one group received 100 IU/kg of insulin by via oral gavage 30 minutes prior to a glucose gavage; […] gavage; one group of 5 […] gavage and one group of five rodents were given only a glucose gavage. Blood glucose of all rodents were then monitored over 90 minutes post-glucose gavage.

blood glucose [2] = assay: Oral glucose tolerance test (oGTT), SC-INS versus QD-INS (FIG. 5); assay type: in vivo, C57BL/6 mice; conditions: oral gavage 20 IU/kg, 30 minutes before oGTT
Procedure: A further study was carried out on healthy rodents without diabetic symptoms comparing a saline subcutaneous injection (control), a subcutaneous injection of insulin (SC-INS, 2 IU/kg), or an oral gavage of oral-insulin (QD-INS, 20 IU/kg) 30 minutes before a glucose tolerance test (oGTT).

blood glucose [3] = assay: Insulin tolerance test in diabetic NOD/Scid mouse model (FIG. 8); assay type: in vivo, NOD/Scid mice; conditions: oral gavage versus subcutaneous injection
Procedure: NOD mice with a blood glucose below […] were treated with SC-INS (1 IU/kg) or QD-INS (25 IU/kg) at time 0, mice with a blood glucose above […] were treated with 4 IU/kg SC-INS or 100 IU/kg QD-INS. Blood glucose samples were collected at −15, 0, 15, 30, 45 and 60 mins. […] Data points showing the mean±SD.
Blood glucose was measured used a handheld Glucometer using Accu-check proforma strips. Blood was collected by tail vein sampling following a tail snip. Blood glucose was collected at −15, 0, 15, 30, 45 and 60 mins after a subcutaneous (SC) insulin injection (0.1, 1 or 2 IU/kg) or a gavage of QD-insulin conjugates (10, 20, 30, 40, 50, 75 or 100 IU/kg).

[4] = in vivo, po
Procedure: (§1) Conjugates of radiolabeled insulin and quantum dots were produced in a method as described above, albeit with radiolabeled insulin used instead of native insulin. Two groups of healthy rodents were then orally administered either a dose of conjugates or equivalent radiolabeled unbound insulin. The distribution of radioactivity was then monitored 30 minutes after administration.

[5] = Biodistribution of ^14C radiolabelled insulin (FIG. 6); conditions: for main location of radiolabelled insulin: after 30 minutes, mice fasted 4 hours
Procedure: Tissue samples and blood plasma were prepared for radiolabel component analysis according to standard methods. Data is presented in this figure is as a percentage of radiolabel insulin relative to the administrated dosage, data is shown as mean±SD.
Three mice treatment groups were fasted for 4 hours before given either an oral gavage of insulin (Oral INS), a subcutaneous injection of insulin (SC-INS) or an oral gavage of QD-insulin conjugate (QD-INS) at 2 IU/kg doses.

[6] = Uptake of radiolabeled insulin-quantum dot conjugate after oral administration; conditions: 30 minutes after oral administration, healthy rodents
Procedure: as §1

Row | Substance | effect on blood glucose after glucose gavage (blood glucose [1]; oral gavage equivalent to 20 IU/kg insulin) | blood glucose lowering effects compared with the injected insulin (blood glucose [1]; orally administered) | blood glucose lowering, no spike after glucose gavage (blood glucose [1]; quantum dot insulin group, oral, 30 minutes prior to glucose gavage (Example 3)) | lowering of blood glucose levels in oGTT compared with injected insulin (SC-INS, 2 IU/kg) (blood glucose [2]) | QD-insulin dose relative to the SC-insulin dose that resulted in similar glucose reductions (blood glucose [3]) | radioactive label found in the liver [4] | main location of radiolabelled insulin ([5]; oral gavage 2 IU/kg) | main location of radiolabelled insulin ([5]; subcutaneous injection 2 IU/kg) | location of radiolabelled insulin ([5]; after 2 hours, oral gavage 2 IU/kg) | radiolabelled insulin located in the liver ([5]; after 2 hours, subcutaneous injection 2 IU/kg) | blood glucose lowering, no spike after glucose gavage (blood glucose [1]; 2 IU/kg by intraperitoneal injection 30 minutes prior to glucose gavage (Example 3)) | effect on blood glucose after glucose gavage (blood glucose [1]; intraperitoneal injection equivalent to 0.1 IU/kg insulin) | radioactive label found in the liver [6]
1 | QD-insulin: Ag2S quantum dot conjugated to insulin by EDC/NHS, then assembled with chitosan with galactose or glucose biopolymer | reduced the blood glucose of the rodent subjects by an approximately equivalent amount | equal, if not better | effective in lowering blood glucose | as effective | about 25 times | Approximately 50% |  |  |  |  |  |  | 
2 | insulin |  |  |  |  |  |  | mainly located in the small bowel | found in the liver and blood | still located in the bowel | about 50% | effective in lowering blood glucose | reduced the blood glucose of the rodent subjects by an approximately equivalent amount | approximately 1%
